Experimental data as given in the NIST ThermoML archive (doi:10.1016/j.jct.2007.08.002).
Numbers after ± are expanded uncertainties.

Assay: molar heat capacity at constant pressure
Conditions: 101.33 kPa, Small (less than 1 g) adiabatic calorimetry

## NC12CC3CC(CC(C3)C1)C2 [tricyclo(3.3.1.1:3,7)decan-1-amine]
5 K, Crystal 3
  molar heat capacity at constant pressure: 0.4688 ± 0.025 J/K/mol
10 K, Crystal 3
  molar heat capacity at constant pressure: 3.505 ± 0.062 J/K/mol
15 K, Crystal 3
  molar heat capacity at constant pressure: 9.163 ± 0.12 J/K/mol
20 K, Crystal 3
  molar heat capacity at constant pressure: 15.65 ± 0.17 J/K/mol
25 K, Crystal 3
  molar heat capacity at constant pressure: 21.75 ± 0.19 J/K/mol
30 K, Crystal 3
  molar heat capacity at constant pressure: 26.96 ± 0.2 J/K/mol
35 K, Crystal 3
  molar heat capacity at constant pressure: 31.21 ± 0.22 J/K/mol
40 K, Crystal 3
  molar heat capacity at constant pressure: 34.7 ± 0.24 J/K/mol
45 K, Crystal 3
  molar heat capacity at constant pressure: 37.68 ± 0.26 J/K/mol
50 K, Crystal 3
  molar heat capacity at constant pressure: 40.29 ± 0.27 J/K/mol
60 K, Crystal 3
  molar heat capacity at constant pressure: 44.98 ± 0.29 J/K/mol
70 K, Crystal 3
  molar heat capacity at constant pressure: 49.57 ± 0.32 J/K/mol
80 K, Crystal 3
  molar heat capacity at constant pressure: 54.53 ± 0.34 J/K/mol
90 K, Crystal 3
  molar heat capacity at constant pressure: 59.87 ± 0.39 J/K/mol
100 K, Crystal 3
  molar heat capacity at constant pressure: 65.39 ± 0.42 J/K/mol
110 K, Crystal 3
  molar heat capacity at constant pressure: 71.11 ± 0.45 J/K/mol
120 K, Crystal 3
  molar heat capacity at constant pressure: 77.06 ± 0.47 J/K/mol
130 K, Crystal 3
  molar heat capacity at constant pressure: 83.31 ± 0.5 J/K/mol
140 K, Crystal 3
  molar heat capacity at constant pressure: 89.8 ± 0.5 J/K/mol
150 K, Crystal 3
  molar heat capacity at constant pressure: 96.61 ± 0.58 J/K/mol
160 K, Crystal 3
  molar heat capacity at constant pressure: 103.8 ± 0.58 J/K/mol
170 K, Crystal 3
  molar heat capacity at constant pressure: 111.5 ± 0.67 J/K/mol
180 K, Crystal 3
  molar heat capacity at constant pressure: 119.5 ± 0.67 J/K/mol
190 K, Crystal 3
  molar heat capacity at constant pressure: 128 ± 0.75 J/K/mol
200 K, Crystal 3
  molar heat capacity at constant pressure: 136.9 ± 0.75 J/K/mol
210 K, Crystal 3
  molar heat capacity at constant pressure: 146.4 ± 0.83 J/K/mol
220 K, Crystal 3
  molar heat capacity at constant pressure: 156.5 ± 0.83 J/K/mol
230 K, Crystal 3
  molar heat capacity at constant pressure: 167.1 ± 0.92 J/K/mol
240 K, Crystal 3
  molar heat capacity at constant pressure: 178.3 ± 1 J/K/mol
241.4 K, Crystal 2
  molar heat capacity at constant pressure: 179.9 ± 1 J/K/mol
241.4 K, Crystal 3
  molar heat capacity at constant pressure: 179.9 ± 1 J/K/mol
250 K, Crystal 2
  molar heat capacity at constant pressure: 190.2 ± 1 J/K/mol
260 K, Crystal 2
  molar heat capacity at constant pressure: 202.7 ± 1.1 J/K/mol
270 K, Crystal 2
  molar heat capacity at constant pressure: 215.9 ± 1.2 J/K/mol
280 K, Crystal 2
  molar heat capacity at constant pressure: 230 ± 1.2 J/K/mol
284.6 K, Crystal 1
  molar heat capacity at constant pressure: 263.6 ± 1.4 J/K/mol
284.6 K, Crystal 2
  molar heat capacity at constant pressure: 236.6 ± 1.2 J/K/mol
290 K, Crystal 1
  molar heat capacity at constant pressure: 264.7 ± 1.4 J/K/mol
298.15 K, Crystal 1
  molar heat capacity at constant pressure: 266.4 ± 1.4 J/K/mol
300 K, Crystal 1
  molar heat capacity at constant pressure: 266.8 ± 1.4 J/K/mol
310 K, Crystal 1
  molar heat capacity at constant pressure: 268.9 ± 1.4 J/K/mol
320 K, Crystal 1
  molar heat capacity at constant pressure: 271.1 ± 1.4 J/K/mol
330 K, Crystal 1
  molar heat capacity at constant pressure: 273.1 ± 1.4 J/K/mol
340 K, Crystal 1
  molar heat capacity at constant pressure: 275.5 ± 1.4 J/K/mol
350 K, Crystal 1
  molar heat capacity at constant pressure: 278.5 ± 1.4 J/K/mol
360 K, Crystal 1
  molar heat capacity at constant pressure: 282.1 ± 1.5 J/K/mol
370 K, Crystal 1
  molar heat capacity at constant pressure: 286.4 ± 1.5 J/K/mol
